Source: patent publication EP0339465A2, “Antibacterial composition for oral administration” (MEIJI SEIKA KAISHA LTD., priority 1988, dated 1989)

Experiment: Stability in aqueous solution
Format: physicochemical
Conditions: aqueous solution of a pH value of 6 or above

stability in an aqueous solution: unstable
SMILES: CO/N=C(\C(=O)N[C@@H]1C(=O)N2C(C(=O)OCOC(=O)C(C)(C)C)=C(/C=C\c3scnc3C)CS[C@H]12)c1csc(N)n1 [substance ME1207, pivaloyloxymethyl-(6R,7R)-7[(Z)-2-(2-aminothiazol-4-yl)-2-methoxyiminoacetamide]-3-[(Z)-2-(4-methylthiazol-5-yl)ethenyl]cephem-4-carboxylate]
